Data on 25 compounds can be found in US11497752B2, “Compounds and uses thereof” (Foghorn Therapeutics Inc., priority 2018, dated 2022).

In one test the target is BRM (Homo sapiens, UniProt P51531). In words: ATPase catalytic activity of BRM (ADP-Glo in vitro biochemical assay). On the technique in general: ADP-Glo first removes unused ATP, then detects ADP through luciferase.
Another test has as its target BRG-1 (Homo sapiens, UniProt P51532). In words: ATPase catalytic activity of BRG-1 (ADP-Glo in vitro biochemical assay).

The IC50 is the concentration at which inhibition is half-maximal. Read a low IC50 as greater potency.

Sequence of BRG-1 (P51532 whole entry): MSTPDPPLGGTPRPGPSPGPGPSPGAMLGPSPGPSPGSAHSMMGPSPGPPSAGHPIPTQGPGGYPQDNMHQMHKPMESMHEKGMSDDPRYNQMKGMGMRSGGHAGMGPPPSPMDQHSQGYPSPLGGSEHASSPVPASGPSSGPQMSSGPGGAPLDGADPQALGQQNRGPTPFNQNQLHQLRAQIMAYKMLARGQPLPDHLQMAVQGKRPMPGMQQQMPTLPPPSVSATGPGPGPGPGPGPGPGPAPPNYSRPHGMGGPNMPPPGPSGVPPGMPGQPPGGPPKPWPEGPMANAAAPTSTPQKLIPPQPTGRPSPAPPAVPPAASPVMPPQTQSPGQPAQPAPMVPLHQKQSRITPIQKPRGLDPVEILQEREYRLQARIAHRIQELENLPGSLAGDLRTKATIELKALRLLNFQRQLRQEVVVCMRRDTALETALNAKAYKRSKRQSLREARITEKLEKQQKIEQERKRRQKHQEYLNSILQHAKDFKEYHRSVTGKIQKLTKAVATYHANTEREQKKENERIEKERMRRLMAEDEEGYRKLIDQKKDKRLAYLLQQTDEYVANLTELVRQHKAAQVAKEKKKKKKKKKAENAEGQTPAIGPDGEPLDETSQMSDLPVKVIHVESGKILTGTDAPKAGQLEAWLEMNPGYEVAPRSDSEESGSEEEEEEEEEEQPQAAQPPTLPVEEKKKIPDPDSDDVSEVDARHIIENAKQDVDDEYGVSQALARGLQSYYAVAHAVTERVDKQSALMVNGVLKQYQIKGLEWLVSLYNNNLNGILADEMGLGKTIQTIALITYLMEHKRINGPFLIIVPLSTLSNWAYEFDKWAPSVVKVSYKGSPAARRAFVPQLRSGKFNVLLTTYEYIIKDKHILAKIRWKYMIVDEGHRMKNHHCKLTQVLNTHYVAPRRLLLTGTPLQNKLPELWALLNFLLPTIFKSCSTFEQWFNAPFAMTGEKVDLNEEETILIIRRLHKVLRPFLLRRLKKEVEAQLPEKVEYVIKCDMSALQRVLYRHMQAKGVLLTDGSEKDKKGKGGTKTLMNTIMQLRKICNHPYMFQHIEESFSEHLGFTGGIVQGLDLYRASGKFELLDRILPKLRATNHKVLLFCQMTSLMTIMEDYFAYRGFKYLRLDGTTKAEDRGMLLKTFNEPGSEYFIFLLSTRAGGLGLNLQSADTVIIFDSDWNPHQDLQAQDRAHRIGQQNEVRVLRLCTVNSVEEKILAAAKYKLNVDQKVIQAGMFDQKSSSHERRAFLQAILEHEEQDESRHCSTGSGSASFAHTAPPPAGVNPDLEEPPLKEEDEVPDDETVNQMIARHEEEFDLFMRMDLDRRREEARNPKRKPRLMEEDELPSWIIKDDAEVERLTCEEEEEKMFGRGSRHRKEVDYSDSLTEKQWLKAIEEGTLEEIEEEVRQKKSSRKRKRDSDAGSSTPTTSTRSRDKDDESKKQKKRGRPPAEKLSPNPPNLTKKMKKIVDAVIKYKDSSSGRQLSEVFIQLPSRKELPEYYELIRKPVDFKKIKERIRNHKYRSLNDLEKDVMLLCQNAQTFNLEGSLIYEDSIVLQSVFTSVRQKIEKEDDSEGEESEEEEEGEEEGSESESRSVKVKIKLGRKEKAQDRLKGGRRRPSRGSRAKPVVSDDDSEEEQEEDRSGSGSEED
Sequence of BRM (P51531 whole entry): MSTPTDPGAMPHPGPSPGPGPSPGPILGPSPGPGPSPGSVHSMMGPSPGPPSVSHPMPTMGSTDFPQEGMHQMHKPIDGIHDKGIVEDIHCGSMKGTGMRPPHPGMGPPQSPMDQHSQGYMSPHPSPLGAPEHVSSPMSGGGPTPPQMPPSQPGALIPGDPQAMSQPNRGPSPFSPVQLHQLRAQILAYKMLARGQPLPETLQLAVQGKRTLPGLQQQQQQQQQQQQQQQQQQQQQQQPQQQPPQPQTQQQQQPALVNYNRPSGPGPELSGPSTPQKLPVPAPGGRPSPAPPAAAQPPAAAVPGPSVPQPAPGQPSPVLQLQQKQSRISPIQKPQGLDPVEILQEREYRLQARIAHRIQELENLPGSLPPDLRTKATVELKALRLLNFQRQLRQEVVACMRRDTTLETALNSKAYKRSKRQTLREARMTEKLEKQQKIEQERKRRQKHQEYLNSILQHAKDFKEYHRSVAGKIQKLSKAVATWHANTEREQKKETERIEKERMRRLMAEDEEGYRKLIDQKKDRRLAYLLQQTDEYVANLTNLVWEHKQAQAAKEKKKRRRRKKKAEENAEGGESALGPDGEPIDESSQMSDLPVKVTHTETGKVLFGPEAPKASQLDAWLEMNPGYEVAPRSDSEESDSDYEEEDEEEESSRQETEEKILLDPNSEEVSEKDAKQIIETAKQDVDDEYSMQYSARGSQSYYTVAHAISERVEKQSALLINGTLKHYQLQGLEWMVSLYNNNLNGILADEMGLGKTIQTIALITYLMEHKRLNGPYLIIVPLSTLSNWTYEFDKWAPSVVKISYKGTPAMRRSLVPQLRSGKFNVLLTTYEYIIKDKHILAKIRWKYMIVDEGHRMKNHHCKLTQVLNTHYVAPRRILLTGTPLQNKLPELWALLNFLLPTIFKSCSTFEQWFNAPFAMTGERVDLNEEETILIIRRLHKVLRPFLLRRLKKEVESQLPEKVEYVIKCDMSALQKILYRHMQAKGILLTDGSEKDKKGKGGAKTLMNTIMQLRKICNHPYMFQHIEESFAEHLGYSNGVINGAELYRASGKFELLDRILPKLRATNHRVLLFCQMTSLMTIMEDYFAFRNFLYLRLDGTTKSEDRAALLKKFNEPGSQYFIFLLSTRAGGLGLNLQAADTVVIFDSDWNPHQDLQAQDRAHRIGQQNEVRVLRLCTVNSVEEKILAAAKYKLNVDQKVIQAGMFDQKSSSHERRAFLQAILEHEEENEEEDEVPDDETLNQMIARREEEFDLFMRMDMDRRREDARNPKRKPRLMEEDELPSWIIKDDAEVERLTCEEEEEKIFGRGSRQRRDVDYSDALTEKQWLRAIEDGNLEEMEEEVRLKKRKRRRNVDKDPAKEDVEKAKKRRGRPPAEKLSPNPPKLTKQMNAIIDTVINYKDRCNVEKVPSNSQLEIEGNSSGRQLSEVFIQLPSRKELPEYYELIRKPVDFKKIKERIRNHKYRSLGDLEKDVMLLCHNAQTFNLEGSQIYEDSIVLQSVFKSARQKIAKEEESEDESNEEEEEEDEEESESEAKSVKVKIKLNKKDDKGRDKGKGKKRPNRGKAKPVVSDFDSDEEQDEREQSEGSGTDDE

For `CC(C)(O)c1cccc(C(=O)NCC(=O)Nc2nc(-c3ccccc3)cs2)c1` [Compound 61, 3-(2-hydroxypropan-2-yl)-N-(2-oxo-2-((4-phenylthiazol-2-yl)amino)ethyl)benzamide], the IC50 against BRM and on BRG-1 was 1 to 10 µM in each case. Besides, on BRM (Table 5), the “BRM Max % Inhibition” value is over 80%. The “BRG1 Max % Inhibition” value at BRG-1 (Table 5) is on record as over 50%.

Consider `CSCC[C@H](NC(=O)c1ccc(S(=O)(=O)N(C)C)s1)C(=O)Nc1nc(-c2ccccc2)cs1` [Compound 62, 5-(dimethylsulfamoyl)-N-[(1S)-3-methylsulfanyl-1-[(4-phenylthiazol-2-yl)carbamoyl]propyl]thiophene-2-carboxamide], for which the IC50 at BRM and on BRG-1 was 1 to 10 µM in each case. Further, at BRM (Table 5), the “BRM Max % Inhibition” value is over 80%. Also, at BRG-1 (Table 5), the “BRG1 Max % Inhibition” value is over 70%.

For `CSCC[C@H](NC(=O)c1cc(S(=O)(=O)N(C)C)cs1)C(=O)Nc1nc(-c2ccccc2)cs1` [Compound 64, 4-(dimethylsulfamoyl)-N-[(1S)-3-methylsulfanyl-1-[(4-phenylthiazol-2-yl)carbamoyl]propyl]thiophene-2-carboxamide], the IC50 at BRM and on BRG-1 was 1 to 10 µM in each case. In addition, at BRM (Table 5), the “BRM Max % Inhibition” value is over 70%. For the same compound, on BRG-1 (Table 5), the “BRG1 Max % Inhibition” value is given as over 60%.

For the compound `CC(C)(C)c1cccc(C(=O)NCC(=O)Nc2nc(-c3ccccc3)cs2)c1` [Compound 65, 3-(tert-butyl)-N-(2-oxo-2-((4-phenylthiazol-2-yl)amino)ethyl)benzamide], the IC50 at BRM and on BRG-1 was 1 to 10 µM in each case. In addition, the “BRM Max % Inhibition” value at BRM (Table 5) is reported as over 70%. On BRG-1 (Table 5), the “BRG1 Max % Inhibition” value is given as over 30%.

As to `CSCC[C@H](NC(=O)c1ccc2[nH]cnc2c1)C(=O)Nc1nc(-c2ccccc2)cs1` [Compound 66, (S)—N-(4-(methylthio)-1-oxo-1-((4-phenylthiazol-2-yl)amino)butan-2-yl)-1H-benzo[d]imidazole-5-carboxamide], the IC50 against BRM and against BRG-1 was over 10 µM each time. At BRM (Table 5), the “BRM Max % Inhibition” value is given as over 70%. Also, the “BRG1 Max % Inhibition” value at BRG-1 (Table 5) was over 50%.

`COc1ccc(C(=O)N[C@@H](CCSC)C(=O)Nc2nc(-c3ccccc3)cs2)cc1` [Compound 67, 4-methoxy-N-[(1S)-3-methylsulfanyl-1-[(4-phenylthiazol-2-yl)carbamoyl]propyl]benzamide]: the IC50 against BRM and at BRG-1 was over 10 µM each time. In addition, the “BRM Max % Inhibition” value on BRM (Table 5) is listed as over 70%. Also, the “BRG1 Max % Inhibition” value on BRG-1 (Table 5) is listed as over 70%.

`CSCC[C@H](NC(=O)c1ccc(C(F)(F)F)cc1)C(=O)Nc1nc(-c2ccccc2)cs1` [Compound 68]: the IC50 on BRM and against BRG-1 was over 10 µM in each case.

On to `CSCC[C@H](NC(=O)c1ccccc1O)C(=O)Nc1nc(-c2ccccc2)cs1` [Compound 69, 2-hydroxy-N-[(1S)-3-methylsulfanyl-1-[(4-phenylthiazol-2-yl)carbamoyl]propyl]benzamide], for which the IC50 against BRM and against BRG-1 was over 10 µM in each case. In addition, the “BRM Max % Inhibition” value on BRM (Table 5) was over 60%. Also, the “BRG1 Max % Inhibition” value at BRG-1 (Table 5) is recorded as over 60%.

For the compound `CSCC[C@H](NC(=O)c1cc2ccccc2s1)C(=O)Nc1nc(-c2ccccc2)cs1` [Compound 71, (S)—N-(4-(methylthio)-1-oxo-1-((4-phenylthiazol-2-yl)amino)butan-2-yl)benzo[b]thiophene-2-carboxamide], the IC50 is 1 to 10 µM against BRM and over 10 µM against BRG-1. Besides, the “BRM Max % Inhibition” value on BRM (Table 5) is over 60%. The “BRG1 Max % Inhibition” value on BRG-1 (Table 5) is on record as over 50%.

For the compound `CNC(=O)c1ccc(C(=O)N[C@@H](CCSC)C(=O)Nc2nc(-c3ccccc3)cs2)cc1` [Compound 72, N4-methyl-N1-[(1S)-3-methylsulfanyl-1-[(4-phenylthiazol-2-yl)carbamoyl]propyl]terephthalamide], the IC50 against BRM and against BRG-1 was over 10 µM throughout. Also, the “BRM Max % Inhibition” value at BRM (Table 5) was over 60%. Moreover, the “BRG1 Max % Inhibition” value on BRG-1 (Table 5) is over 50%.

As for `CSCC[C@H](NC(=O)c1cccc(C(C)(C)C)c1)C(=O)Nc1nc(-c2ccccc2)cs1` [Compound 73, (S)-3-(tert-butyl)-N-(4-(methylthio)-1-oxo-1-((4-phenylthiazol-2-yl)amino)butan-2-yl)benzamide], the IC50 on BRM is under 1 µM; on BRG-1, 1 to 10 µM. On BRM (Table 5), the “BRM Max % Inhibition” value was over 50%. Besides, on BRG-1 (Table 5), the “BRG1 Max % Inhibition” value was over 30%.

As for `CSCC[C@H](NC(=O)c1ccc(CNC(C)=O)cc1)C(=O)Nc1nc(-c2ccccc2)cs1` [Compound 74, 4-(acetamidomethyl)-N-[3-methylsulfanyl-1-[(4-phenylthiazol-2-yl)carbamoyl]propyl]benzamide], the IC50 at BRM and on BRG-1 was over 10 µM throughout. Further, the “BRM Max % Inhibition” value at BRM (Table 5) is recorded as over 50%. At BRG-1 (Table 5), the “BRG1 Max % Inhibition” value was over 30%.

Turning to `CSCC[C@H](NC(=O)c1cccc(CN)c1)C(=O)Nc1nc(-c2ccccc2)cs1` [Compound 75], the 50% inhibitory concentration (IC50) against BRM and against BRG-1 was over 10 µM each time. For the same compound, the “BRM Max % Inhibition” value at BRM (Table 5) is over 50%. Moreover, the “BRG1 Max % Inhibition” value at BRG-1 (Table 5) was over 60%.

As to `CSCC[C@H](NC(=O)c1cccc(C(F)(F)F)c1)C(=O)Nc1nc(-c2ccccc2)cs1` [Compound 77, N-[(1S)-3-methylsulfanyl-1-[(4-phenylthiazol-2-yl)carbamoyl]propyl]-3-(trifluoromethyl)benzamide], the IC50 against BRM and against BRG-1 was over 10 µM in each case. Also, on BRM (Table 5), the “BRM Max % Inhibition” value is given as over 30%. Besides, the “BRG1 Max % Inhibition” value on BRG-1 (Table 5) is on record as over 30%.

Turning to `CN(C)C(=O)c1cccc(C(=O)NCC(=O)Nc2nc(-c3ccccc3)cs2)c1` [Compound 78], the IC50 against BRM and against BRG-1 was over 10 µM in each case.

As for `O=C(CNC(=O)c1cc2c(s1)CCC2)Nc1nc(-c2ccccc2)cs1` [Compound 79, N-[2-oxo-2-[(4-phenylthiazol-2-yl)amino]ethyl]-5,6-dihydro-4H-cyclopenta[b]thiophene-2-carboxamide], the 50% inhibitory concentration (IC50) was under 1 µM against BRM and 1 to 10 µM on BRG-1. The “BRM Max % Inhibition” value on BRM (Table 5) is listed as over 30%. Moreover, the “BRG1 Max % Inhibition” value on BRG-1 (Table 5) is given as over 30%.

`CNc1ccc(C(=O)N[C@@H](CCSC)C(=O)Nc2nc(-c3ccccc3)cs2)cc1` [Compound 81, 4-(methylamino)-N-[(1S)-3-methylsulfanyl-1-[(4-phenylthiazol-2-yl)carbamoyl]propyl]benzamide]: the IC50 on BRM and against BRG-1 was under 1 µM throughout. Further, the “BRM Max % Inhibition” value on BRM (Table 5) is over 95%. The “BRG1 Max % Inhibition” value at BRG-1 (Table 5) is recorded as over 95%.

As for `CSCC[C@H](NC(=O)c1cccc(CO)c1)C(=O)Nc1nc(-c2ccccc2)cs1` [Compound 84, 3-(hydroxymethyl)-N-[(1S)-3-methylsulfanyl-1-[(4-phenylthiazol-2-yl)carbamoyl]propyl]benzamide], the IC50 at BRM and against BRG-1 was over 10 µM throughout. Besides, on BRM (Table 5), the “BRM Max % Inhibition” value was over 80%. In addition, the “BRG1 Max % Inhibition” value on BRG-1 (Table 5) is recorded as over 80%.

Turning to `CSCC[C@H](NC(=O)c1ccc(CO)cc1)C(=O)Nc1nc(-c2ccccc2)cs1` [Compound 85, 4-(hydroxymethyl)-N-[(1S)-3-methylsulfanyl-1-[(4-phenylthiazol-2-yl)carbamoyl]propyl]benzamide], the IC50 against BRM and on BRG-1 was 1 to 10 µM throughout. Besides, on BRM (Table 5), the “BRM Max % Inhibition” value is reported as over 95%. On BRG-1 (Table 5), the “BRG1 Max % Inhibition” value is on record as over 90%.

In the case of `CSCC[C@H](NC(=O)c1ccc(S(C)(=O)=O)cc1)C(=O)Nc1nc(-c2ccccc2)cs1` [Compound 86], the IC50 on BRM and on BRG-1 was over 10 µM each time. Further, at BRM (Table 5), the “BRM Max % Inhibition” value was over 70%. The “BRG1 Max % Inhibition” value at BRG-1 (Table 5) is reported as over 70%.

Consider `CS(=O)(=O)c1cccc(C(=O)NCC(=O)Nc2nc(-c3ccc4cc[nH]c(=O)c4c3)cs2)c1` [Compound 88, 3-(methylsulfonyl)-N-(2-oxo-2-((4-(1-oxo-1,2-dihydroisoquinolin-7-yl)thiazol-2-yl)amino)ethyl)benzamide], for which the IC50 on BRM is 0.1 to 1 µM; against BRG-1, 1 to 10 µM. Moreover, the “BRM Max % Inhibition” value on BRM (Table 6) is recorded as over 95%. Further, the “BRG1 Max % Inhibition” value at BRG-1 (Table 6) was over 95%.

Regarding `CS(=O)(=O)c1cccc(C(=O)NCC(=O)Nc2nc(-c3cccc(-c4ccncc4)c3)cs2)c1` [Compound 89, 3-(methylsulfonyl)-N-(2-oxo-2-((4-(3-(pyridin-4-yl)phenyl)thiazol-2-yl)amino)ethyl)benzamide], the results for the IC50 at BRM and against BRG-1 were under 0.1 µM and 0.1 to 1 µM, respectively. The “BRM Max % Inhibition” value at BRM (Table 6) was over 80%. The “BRG1 Max % Inhibition” value at BRG-1 (Table 6) was over 80%.

In the case of `CS(=O)(=O)c1cccc(C(=O)NCC(=O)Nc2nc(-c3cccc(-c4ccncn4)c3)cs2)c1` [Compound 90, 3-(methylsulfonyl)-N-(2-oxo-2-((4-(3-(pyrimidin-4-yl)phenyl)thiazol-2-yl)amino)ethyl)benzamide], the IC50 against BRM and against BRG-1 was under 0.1 µM each time. Moreover, the “BRM Max % Inhibition” value on BRM (Table 6) is given as over 70%. In addition, the “BRG1 Max % Inhibition” value at BRG-1 (Table 6) is on record as over 50%.

For `CS(=O)(=O)c1cccc(C(=O)NCC(=O)Nc2nc(-c3cccc(C4CCOCC4)c3)cs2)c1` [Compound 91, 3-(methylsulfonyl)-N-(2-oxo-2-((4-(3-(tetrahydro-2H-pyran-4-yl)phenyl)thiazol-2-yl)amino)ethyl)benzamide], the results for the IC50 against BRM and against BRG-1 were 0.1 to 1 µM and 1 to 10 µM, respectively. The “BRM Max % Inhibition” value on BRM (Table 6) is reported as over 95%. Also, the “BRG1 Max % Inhibition” value on BRG-1 (Table 6) is given as over 90%.

Turning to `CS(=O)(=O)c1cccc(C(=O)NCC(=O)Nc2nc(-c3ccc4c(c3)OCCO4)cs2)c1` [Compound 92, N-(2-((4-(2,3-dihydrobenzo[b][1,4]dioxin-6-yl)thiazol-2-yl)amino)-2-oxoethyl)-3-(methylsulfonyl)benzamide], the IC50 against BRM and against BRG-1 was 0.1 to 1 µM throughout. Moreover, the “BRM Max % Inhibition” value on BRM (Table 6) is reported as over 90%. Further, the “BRG1 Max % Inhibition” value on BRG-1 (Table 6) is over 80%.
